Test results published in patent US20040220268A1, “Compound that directly stimulates phospholipase C activity” (priority 2003, published 2004).

Assays:
PC12 cells = assay: [Ca2+]i measurement with fura-2; assay type: cell-based, rat; conditions: 25 μM
Protocol: Neutrophils and HL60, and differentiated HL60, U937, NIH3T3, and PC12 cells were loaded with fura-2 and then stimulated with 25 μM of m-3M3FBS. Changes in the 340 nm/380 nm excitation ratio were monitored, and converted to [Ca^2+]i levels. Data are presented as means ±S. E. M. of three independent experiments.
U937 (human histiocytic lymphoma cells), HL60 (human promyelocytic leukemia cells), NIH3T3 (NIH Swiss mouse embryo fibroblasts), and PC12 (rat adrenal pheochromocytoma cells) were obtained from the American Type Culture Collection (Rockville, Md.) and HeLa (human adenocarcinoma cells) Tet-off cells were purchased from Clontech (Palo Alto, Calif., U.S.A.) and maintained as recommended. The cells were maintained at about 1×10^6 cells/ml under standard incubator conditions (humidified atmosphere, 95% air, 5% CO2, 37° C.). […]
Freshly prepared human neutrophils were incubated in serum free RPMI 1640 medium with 3 μM of fura-2/AM at 37° C. for 30 min with continuous stirring. […] Changes in the fluorescence ratio were measured at an emission wavelength of 500 nm for dual excitation wavelengths at 340 nm and 380 nm. The calibration of the fluorescence ratio versus [Ca^2+]i was performed as described by Grynkiewicz (Grynkiewicz et al., 1985).

Gs-proteins = assay: Cyclic AMP generation (radio receptor assay); assay type: cell-based; conditions: human neutrophils; m-3M3FBS 25 μM, histamine 100 μM
Protocol: Isolated neutrophils were preincubated with PTX (1 μg/ml) or vehicle for 90 min at 37° C. and stimulated with m-3M3FBS, FMLF, or ATP at concentrations of 25, 1, and 500 μM, respectively. Changes in the excitation ratios at 340 nm/380 nm were monitored. Data are presented as means ±S. E. M. of two independent experiments (A). cAMP levels were determined by a radio receptor assay. Prepared cells were treated with m-3M3FBS (25 μM) or histamine (100 μM) and then lysed with Tris-EDTA. After removing the supernatant, [ 3H] cAMP and protein were added, and the amount of [^3H] cAMP-protein complex was determined. The amount of unlabeled cAMP (in the sample) was then calculated by measuring the protein-bound radioactivity. Data are presented as means ±S. E. M. of two independent experiments (B). […] RGS2-GFP inducible HeLa cells were cultured for 48 h in the absence or in the presence of tetracycline and loaded with fura-2. Cells were treated with histamine (100 μM) or m-3M3FBS (25 μM), and changes in the 340 nm/380 nm ratios were monitored and converted to [Ca^2+]i values. The results shown are representative of three independent experiments (C).

human neutrophils [1] = assay: Cross-desensitization of [Ca2+]i responses in neutrophils; assay type: cell-based; conditions: extracellular calcium free
Protocol: FIG. 5 describes cross-desensitization experiments. Fura-2-loaded neutrophils were pretreated with m-3M3FBS (25 μM) and then rechallenged with ATP (500 μM) or WKYMVm (1 μM) in this or in the reverse order in the extracellular calcium free condition. Changes in the 340 nm/380 nm excitation ratio were monitored, and converted to [Ca^2+]i levels. The results shown are representative of three independent experiments.
(§1) Freshly prepared human neutrophils were incubated in serum free RPMI 1640 medium with 3 μM of fura-2/AM at 37° C. for 30 min with continuous stirring. After washing with serum free RPMI 1640 medium, the cells were suspended in serum free RPMI containing 250 μM of sulfinpyrazone to prevent dye leakage. About 2×10^6 cells were suspended in Ca^2+ free Locke's solution (158.4 mM NaCl, 5.6 mM KCl, 1.2 mM MgCl2, 5 mM HEPES pH 7.3, 10 mM glucose, and 0.2 mM EGTA) for each measurement. Changes in the fluorescence ratio were measured at an emission wavelength of 500 nm for dual excitation wavelengths at 340 nm and 380 nm. The calibration of the fluorescence ratio versus [Ca^2+]i was performed as described by Grynkiewicz (Grynkiewicz et al., 1985).

U937 cells = assay: Formation of inositol phosphates in cells (in vivo PLC activity); assay type: cell-based, human
Protocol: U937 Cells were labeled with myo-[^3H] inositol (1 μCi/10^6 cells) for 24 h at 37° C. and then treated with various concentrations of m-3M3FBS or o-3M3FBS. Total inositol phosphates were eluted with a solution containing 1 M ammonium formate and 0.1 M formic acid. Radioactivity of the [3H] inositol phosphates was determined by counting in a scintillation counter. Data are presented as means ±S. E. M. of five independent experiments.
Cells grown in culture were harvested by centrifugation, washed with inositol-free RPMI 1640 medium, and resuspended at a density of 2×10^6 cells/ml in the same medium. The cells were then labeled with myo-[^3H] inositol (1 μCi/10^6 cells) for 24 h at 37° C. and rinsed twice with inositol-free RPMI 1640 medium containing 0.5% fetal bovine serum, 20 mM of Hepes at pH 7.2, 20 mM of LiCl, and bovine serum albumin (1 mg/ml) and then resuspended at a density of 2×10^7 cells/ml. A portion (0.1 ml) of the cell suspension was transferred to a microcentrifuge tube and incubated at 37° C. for 15 min. PIP2 hydrolysis was initiated by adding chemicals or solvents for the indicated times. Reactions were terminated by adding 200 μl of ice-cold 10% perchloric acid (HClO4). […] The radioactivity of the [3H] inositol phosphates was determined using a scintillation counter (Tri-Packard, Meriden, Conn.).

human neutrophils [2] = assay: [Ca2+]i measurement with fura-2 in neutrophils; assay type: cell-based
Protocol: Fura-2-loaded neutrophils were stimulated with m-3M3FBS or o-3M3FBS at 25 μM in extracellular calcium containing 2 mM or extracellular free calcium conditions. The results shown are representative of three independent experiments (A). Prepared neutrophils were loaded with fura-2 and then stimulated with 25 μM of m-3M3FBS in the absence or in the presence of 4 μM of U-73122 or U-73343 (B). Changes in 340 nm/380 nm excitation ratio were monitored, and converted to [Ca^2+]i levels. Data are presented as means ±S. E. M. of three independent experiments.
as §1

[3] = 25 μM, extracellular Ca2+ at physiologic levels (2 mM)

Compound	calcium increase (PC12 cells)	intracellular cAMP level (Gs-proteins)	[Ca2+]i response when given after ATP or WKYMVm (human neutrophils [1]; 25 μM after ATP 500 μM or WKYMVm 1 μM)	effect of prestimulation on cellular response to ATP (human neutrophils [1]; m-3M3FBS 25 μM, then ATP 500 μM)	effect of prestimulation on cellular response to WKYMVm (human neutrophils [1]; m-3M3FBS 25 μM, then WKYMVm 1 μM)	fold increase of accumulation of inositol phosphates (U937 cells; 50 μM) [fold]	[Ca2+]i increase (human neutrophils [2]; [3])	[Ca2+]i increase (human neutrophils [2]; 25 μM, extracellular calcium-depleted condition)	concentration of saturated maximal activity of [Ca2+]i release (human neutrophils [2]; concentration dependent, data not shown) [µM]	calcium increase (human neutrophils [2]; human neutrophils, 25 μM)	effect on PLC activity (inositol phosphate formation) (U937 cells)
Cc1cc(C)c(S(=O)(=O)Nc2cccc(C(F)(F)F)c2)c(C)c1 [m-3M3FBS, 2,4,6-Trimethyl-N-(meta 3-trifluoromethyl-phenyl)-benzenesulfonamide]	induced calcium increase	didn't change the cAMP level	elicited still further [Ca^2+]i increases	significantly reduced	significantly reduced	2.5	caused a [Ca^2+]i increase	evoked a [Ca^2+]i increase	50	induced calcium increase	–
Cc1cc(C)c(S(=O)(=O)Nc2ccccc2C(F)(F)F)c(C)c1 [o-3M3FBS, 2,4,6-Trimethyl-N-(ortho 3-trifluoromethyl-phenyl)-benzenesulfonamide, reference compound]	–	–	–	–	–	–	failed to elicit this response	–	–	–	no effect
